In general, Ki refers to the equilibrium dissociation constant of an inhibitor or competing ligand from its target. A higher Ki goes with a looser hold on the target.

SMILES strings stand for the structures. Where a name gives a salt, the structure may show the parent alone. A value given as a limit tells only on which side of the number the result lay.

In the assay the target is human Factor XIa (Homo sapiens (Human), UniProt P03951). Put plainly: Factor XIa enzyme inhibition assay (chromogenic substrate S-2366). In kind it is biochemical. To be noted: purified human Factor XIa, substrate S-2366, pH 7.4. How it is done: The results of this assay are expressed as the inhibitory constant, Ki.
Chain of human Factor XIa (P03951 whole entry, looked up): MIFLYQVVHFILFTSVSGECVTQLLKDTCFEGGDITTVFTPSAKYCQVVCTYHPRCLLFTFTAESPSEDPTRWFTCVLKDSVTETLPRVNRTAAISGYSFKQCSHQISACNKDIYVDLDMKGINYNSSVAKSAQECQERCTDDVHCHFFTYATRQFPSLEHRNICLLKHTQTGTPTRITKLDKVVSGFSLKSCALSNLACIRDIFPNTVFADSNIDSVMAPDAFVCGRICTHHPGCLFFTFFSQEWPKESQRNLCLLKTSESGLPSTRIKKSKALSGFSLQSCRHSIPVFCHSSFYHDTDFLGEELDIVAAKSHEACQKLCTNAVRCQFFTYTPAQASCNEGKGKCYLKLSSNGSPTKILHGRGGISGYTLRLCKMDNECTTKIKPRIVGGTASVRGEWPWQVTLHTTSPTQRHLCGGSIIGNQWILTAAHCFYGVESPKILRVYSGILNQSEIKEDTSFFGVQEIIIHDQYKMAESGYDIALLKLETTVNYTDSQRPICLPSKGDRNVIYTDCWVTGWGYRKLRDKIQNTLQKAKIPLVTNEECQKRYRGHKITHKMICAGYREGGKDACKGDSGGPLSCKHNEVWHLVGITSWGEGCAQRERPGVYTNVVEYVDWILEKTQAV
Chain of human Factor XIa (P03951 whole entry partner, looked up): as the sequence (P03951 whole entry, looked up) above
Values of Ki were determined by allowing the protease to react with the substrate in the presence of the inhibitor. Reactions were allowed to go for periods of 20-180 minutes (depending on the protease) and the velocities (rate of absorbance or fluorescence change versus time) were measured. The following relationships were used to calculate Ki values:
vs/vo=A+((B−A)/1+((IC50/(I)n))); and […]
`COCCNC(=O)c1cccc2c1CCN(C(=O)/C=C/c1cc(Cl)ccc1-n1cnnn1)C2C(=O)Nc1ccc(C(=O)O)cc1` (stereo not drawn) [Example 3, (E)-4-(2-(3-(5-Chloro-2-(1H-tetrazol-1-yl)phenyl)acryloyl)-5-(2-methoxyethylcarbamoyl)-1,2,3,4-tetrahydroisoquinoline-1-carboxamido)benzoic acid] showed a Ki of 21.3 nM.
Consider `CS(=O)(=O)Nc1cccc2c1CCN(C(=O)/C=C/c1c(-n3cnnn3)ccc(Cl)c1F)C2C(=O)Nc1ccc(C(=O)O)cc1` (stereo not drawn) [Example 9, (E)-4-(2-(3-(3-chloro-2-fluoro-6-(1H-tetrazol-1-yl)phenyl)acryloyl)-5-(methylsulfonamido)-1,2,3,4-tetrahydroisoquinoline-1-carboxamido)benzoic acid], for which the inhibition constant Ki is less than 5 nM.
The molecule `CCOC(=O)CCCNC(=O)c1cccc2c1CCN(C(=O)/C=C/c1c(-n3cnnn3)ccc(Cl)c1F)C2C(=O)Nc1ccc(F)cc1` (stereo not drawn) [Example 14] gave a Ki of 580 nM.
For `CCOC(=O)[C@H]1CCCN(C(=O)c2cccc3c2CCN(C(=O)/C=C/c2c(-n4cnnn4)ccc(Cl)c2F)C3C(=O)Nc2ccc(NC(=O)OC)cc2)C1` (stereo partly drawn) [Example 16], the Ki was determined as 332 nM.
The molecule `CC(C)(C)OC(=O)c1ccc(NC(=O)C2c3cccc(C(=O)N4CCN(C(=O)OC(C)(C)C)CC4)c3CCN2C(=O)/C=C/c2c(-n3cnnn3)ccc(Cl)c2F)cc1` (stereo not drawn) [Example 24] displayed an inhibitory constant (Ki) of 170 nM.
`O=C(O)c1ccc(NC(=O)C2c3cccc(C(=O)N4CCNCC4)c3CCN2C(=O)/C=C/c2c(-n3cnnn3)ccc(Cl)c2F)cc1` (stereo not drawn) [Example 29] came in with a Ki of 553 nM.
The result for `O=C(O)c1ccc(NC(=O)C2c3cccc(C(=O)N4CCNCC4)c3CCN2C(=O)/C=C/c2c(-n3cnnn3)ccc(Cl)c2F)cc1` (stereo not drawn) [Example 30] reads less than 5 nM; that for `COc1ccc(-c2cccc3c2CCN(C(=O)/C=C/c2c(-n4cnnn4)ccc(Cl)c2F)C3C(=O)Nc2ccc(C(=O)O)cc2)c(Cl)c1` (stereo not drawn) [Example 47, (E)-4-(2-(3-(3-chloro-2-fluoro-6-(1H-tetrazol-1-yl)phenyl)acryloyl)-5-(2-chloro-4-methoxyphenyl)-1,2,3,4-tetrahydroisoquinoline-1-carboxamido)benzoic acid], less than 5 nM.
Consider `COC(=O)Nc1ccc(-c2cccc3c2CCN(C(=O)/C=C/c2c(-n4cnnn4)ccc(Cl)c2F)[C@H]3C(=O)Nc2ccc(F)cc2)cc1` [Example 50, (R,E)-Methyl 4-(2-(3-(3-chloro-2-fluoro-6-(1H-tetrazol-1-yl)phenyl)acryloyl)-1-(4-fluorophenylcarbamoyl)-1,2,3,4-tetrahydroisoquinolin-5-yl)phenylcarbamate], for which the affinity corresponds to a Ki of 3370 nM.
Under `CNC(=O)c1ccc(-c2cccc3c2CCN(C(=O)/C=C/c2c(-n4cnnn4)ccc(Cl)c2F)C3C(=O)NCC(=O)OC)cc1` (stereo not drawn) [Example 61] stands 342 nM; under `CC[C@H](C)NC(=O)C1c2cccc(-c3ccc(C(=O)NC)cc3)c2CCN1C(=O)/C=C/c1c(-n2cnnn2)ccc(Cl)c1F` (stereo partly drawn) [Example 65], 49.2 nM.
The molecule `CNC(=O)c1ccc(-c2cccc3c2CCN(C(=O)/C=C/c2c(-n4cnnn4)ccc(Cl)c2F)C3C(=O)NCc2nccn2C)cc1` (stereo not drawn) [Example 66] displayed a Ki of 534 nM.
Turning to `CNC(=O)c1ccc(-c2cccc3c2CCN(C(=O)/C=C/c2c(-n4cnnn4)ccc(Cl)c2F)C3C(=O)Nc2ccc(C(=O)O)cc2)cn1` (stereo not drawn) [Example 78], the inhibitory constant (Ki) is less than 5 nM.
Take `CNC(=O)c1ccc(-c2cccc3c2CCN(C(=O)/C=C/c2c(-n4cnnn4)ccc(Cl)c2F)C3C(=O)Nc2ccc3c(c2)CN=N3)cc1` (stereo not drawn) [Example 80]: the affinity, expressed as Ki, was 20.1 nM.
In turn, `CN(C)CCNC(=O)c1ccc(-c2cccc3c2CCN(C(=O)/C=C/c2c(-n4cnnn4)ccc(Cl)c2F)C3C(=O)Nc2ccc(C(=O)OC(C)(C)C)cc2)cc1` (stereo not drawn) [Example 89] had an inhibition constant Ki of less than 5 nM.
The molecule `CN(C)CCNC(=O)c1ccc(-c2cccc3c2CCN(C(=O)/C=C/c2c(-n4cnnn4)ccc(Cl)c2F)[C@H]3C(=O)Nc2ccc(C(=O)OCCN(C)C)cc2)cc1` [Example 93, (R,E)-2-(dimethylamino)ethyl 4-(2-(3-(3-chloro-2-fluoro-6-(1H-tetrazol-1-yl)phenyl)acryloyl)-5-(4-((2-(dimethylamino)ethyl)carbamoyl)phenyl)-1,2,3,4-tetrahydroisoquinoline-1-carboxamido)benzoate; bis-TFA salt] came in with a Ki of 951 nM.
The molecule `CN(C)CCNC(=O)c1ccc(-c2cccc3c2CCN(C(=O)/C=C/c2c(-n4cnnn4)ccc(Cl)c2F)[C@H]3C(=O)Nc2ccc(C(=O)OCc3ccccn3)cc2)cc1` [Example 98] showed an inhibitory constant (Ki) of 132 nM.
The result for `O=C(O)c1ccc(NC(=O)C2c3cccc(OC4CCNCC4)c3CCN2C(=O)/C=C/c2c(-n3cnnn3)ccc(Cl)c2F)cc1` (stereo not drawn) [Example 108, (E)-4-(2-(3-(3-Chloro-2-fluoro-6-(1H-tetrazol-1-yl)phenyl)acryloyl)-5-(piperidin-4-yloxy)-1,2,3,4-tetrahydroisoquinoline-1-carboxamido)benzoic acid, TFA salt] reads less than 5 nM; that for `CC(=O)c1ccc(Cl)c(F)c1/C=C/C(=O)N1CCc2c(-c3ccc(C(N)=O)cc3)cccc2[C@@H]1C(=O)Nc1ccc(C(=O)O)cc1` [Example 120], 291 nM.
The result for `CN(C)CCOc1cccc2c1CCN(C(=O)/C=C/c1c(-n3cnnn3)ccc(Cl)c1F)C2C(=O)Nc1ccc(C(=O)O)cc1` (stereo not drawn) [Example 132, (E)-4-(2-(3-(3-chloro-2-fluoro-6-(1H-tetrazol-1-yl)phenyl)acryloyl)-5-(2-(dimethylamino)ethoxy)-1,2,3,4-tetrahydroisoquinoline-1-carboxamido)benzoic acid, TFA salt] reads less than 5 nM; that for `CC(=O)c1ccc(Cl)c(F)c1/C=C/C(=O)N1CCc2c(O)cccc2C1C(=O)Nc1ccc(C(=O)O)cc1` (stereo not drawn) [Example 146, (E)-4-(2-(3-(6-acetyl-3-chloro-2-fluorophenyl)acryloyl)-5-hydroxy-1,2,3,4-tetrahydroisoquinoline-1-carboxamido)benzoic acid], 24.8 nM; that for `CC(=O)c1ccc(Cl)c(F)c1/C=C/C(=O)N1CCc2c(-c3ccc(C(=O)NCCN(C)C)cc3)cccc2[C@@H]1C(=O)Nc1ccc(C(=O)O)cc1` [Example 150, (R,E)-4-(2-(3-(6-Acetyl-3-chloro-2-fluorophenyl)acryloyl)-5-(4-(2-(dimethylamino)ethylcarbamoyl)phenyl)-1,2,3,4-tetrahydroisoquinoline-1-carboxamido)benzoic acid, TFA salt], 37 nM.
Under `CCOC(=O)c1ccc(NC(=O)C2c3cccc(OCCC4CCN(C)CC4)c3CC(C)(C)N2C(=O)/C=C/c2c(-n3cnnn3)ccc(Cl)c2F)cc1` (stereo not drawn) [Example 152, (E)-ethyl 4-(2-(3-(3-chloro-2-fluoro-6-(1H-tetrazol-1-yl)phenyl)acryloyl)-3,3-dimethyl-5-(2-(1-methylpiperidin-4-yl)ethoxy)-1,2,3,4-tetrahydroisoquinoline-1-carboxamido)benzoate, TFA salt] stands 100 nM.
`CCOC(=O)c1ccc(NC(=O)[C@H]2c3cccc(OCCC4CCNCC4)c3CCN2C(=O)/C=C/c2c(-n3cnnn3)ccc(Cl)c2F)cc1` [Example 160, (R,E)-ethyl 4-(2-(3-(3-chloro-2-fluoro-6-(1H-tetrazol-1-yl)phenyl)-acryloyl)-5-(2-(piperidin-4-yl)ethoxy)-1,2,3,4-tetrahydroisoquinoline-1-carboxamido)benzoate, TFA salt] showed a Ki of 3530 nM.
The result for `Cn1nccc1-c1cccc2c1CCN(C(=O)/C=C/c1c(-n3cnnn3)ccc(Cl)c1F)C2C(=O)Nc1ccc(C(=O)O)cc1` (stereo not drawn) [Example 173, (E)-4-(2-(3-(3-Chloro-2-fluoro-6-(1H-tetrazol-1-yl)phenyl)acryloyl)-5-(1-methyl-1H-pyrazol-5-yl)-1,2,3,4-tetrahydroisoquinoline-1-carboxamido)benzoic acid] reads less than 5 nM; that for `CCOC(=O)c1ccc(NC(=O)C2c3cccc(-c4ccc(C(=O)NC)nc4)c3CCN2C(=O)/C=C/c2c(-n3cnnn3)ccc(Cl)c2F)cc1` (stereo not drawn) [Example 188], 3860 nM.
The result for `CN(C)c1ccc(-c2cccc3c2CCN(C(=O)/C=C/c2c(-n4cnnn4)ccc(Cl)c2F)C3C(=O)Nc2ccc(C(=O)O)cc2)cn1` (stereo not drawn) [Example 191] reads less than 5 nM.

These data come from US9079929B2, “Substituted tetrahydroisoquinoline compounds as factor XIa inhibitors” (priority 2011, dated 2015).
